According to PubChem BioAssay AID1963852 (Molecular Pharmacology Branch, DTP, NCI, 2024):

Test system: 282377-053-R-J1-PDC complex spheroid viability
Assay: Anticancer human tumor 282377-053-R-J1-PDC patient-derived colon adenocarcinoma cell line growth inhibition [POLQ]
Conditions: for IC50: curve of first compound; for viability, T/C: stronger effect = lower value
Summary of the method: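 Complex spheroid viability model combining PDC tumour cells with endothelial (HUVEC) and MSC stromal cells. Novobiocin, ART-558 or RP6685 were tested singly and in combination with standard and investigational anticancer drugs. Each was titrated in half-log steps from near clinical Cmax, or from 10 microM where Cmax was unknown.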

[1] = second compound 0.0316 µM, first compound 0.0316 µM
[2] = second compound 0.0316 µM, first compound 0.1 µM
[3] = second compound 0.0316 µM, first compound 0.316 µM
[4] = second compound 0.0316 µM, first compound 1 µM
[5] = second compound 0.0316 µM, first compound 3.16 µM
[6] = second compound 0.0316 µM, first compound 10 µM
[7] = second compound 0.1 µM, first compound 0.0316 µM
[8] = second compound 0.1 µM, first compound 0.1 µM
[9] = second compound 0.1 µM, first compound 0.316 µM
[10] = second compound 0.1 µM, first compound 1 µM
[11] = second compound 0.1 µM, first compound 3.16 µM
[12] = second compound 0.1 µM, first compound 10 µM
[13] = second compound 0.316 µM, first compound 0.0316 µM
[14] = second compound 0.316 µM, first compound 0.1 µM
[15] = second compound 0.316 µM, first compound 0.316 µM
[16] = second compound 0.316 µM, first compound 1 µM
[17] = second compound 0.316 µM, first compound 3.16 µM
[18] = second compound 0.316 µM, first compound 10 µM
[19] = second compound 1 µM, first compound 0.0316 µM
[20] = second compound 1 µM, first compound 0.1 µM
[21] = second compound 1 µM, first compound 0.316 µM
[22] = second compound 1 µM, first compound 1 µM
[23] = second compound 1 µM, first compound 3.16 µM
[24] = second compound 1 µM, first compound 10 µM
[25] = second compound 3.16 µM, first compound 0.0316 µM
[26] = second compound 3.16 µM, first compound 0.1 µM
[27] = second compound 3.16 µM, first compound 0.316 µM
[28] = second compound 3.16 µM, first compound 1 µM
[29] = second compound 3.16 µM, first compound 3.16 µM
[30] = second compound 3.16 µM, first compound 10 µM
[31] = second compound 10 µM, first compound 0.0316 µM
[32] = second compound 10 µM, first compound 0.1 µM
[33] = second compound 10 µM, first compound 0.316 µM
[34] = second compound 10 µM, first compound 1 µM
[35] = second compound 10 µM, first compound 3.16 µM
[36] = second compound 10 µM, first compound 10 µM
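Note: spheroids exposed to compounds for seven days.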
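Throughout, for viability, T/C: 100% = DMSO vehicle control viability.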

C=CC(=O)N1CCN(c2nc(=O)n(-c3c(C)ccnc3C(C)C)c3nc(-c4c(O)cccc4F)c(F)cc23)C(C)C1 (stereo unspecified) + Nc1ccc(C#CCN(C(=O)Cc2ncc(C(F)(F)F)cc2C(F)(F)F)c2ccc(F)cc2)nn1
IC50 (second compound 0.0316 µM): > 10 µM | IC50 (second compound 0.1 µM): > 10 µM | IC50 (second compound 0.316 µM): > 10 µM | IC50 (second compound 1 µM): > 10 µM | IC50 (second compound 3.16 µM): > 10 µM | IC50 (second compound 10 µM): > 10 µM | viability, T/C [1]: 95% | viability, T/C [2]: 107% | viability, T/C [3]: 94% | viability, T/C [4]: 90.8% | viability, T/C [5]: 104% | viability, T/C [6]: 97.5% | viability, T/C [7]: 95.3% | viability, T/C [8]: 107% | viability, T/C [9]: 91% | viability, T/C [10]: 99.7% | viability, T/C [11]: 113% | viability, T/C [12]: 83.4% | viability, T/C [13]: 90.4% | viability, T/C [14]: 88.6% | viability, T/C [15]: 100% | viability, T/C [16]: 98.7% | viability, T/C [17]: 101% | viability, T/C [18]: 94.9% | viability, T/C [19]: 108% | viability, T/C [20]: 90.9% | viability, T/C [21]: 111% | viability, T/C [22]: 91.3% | viability, T/C [23]: 97.7% | viability, T/C [24]: 86.9% | viability, T/C [25]: 106% | viability, T/C [26]: 100% | viability, T/C [27]: 92.8% | viability, T/C [28]: 108% | viability, T/C [29]: 91% | viability, T/C [30]: 87.9% | viability, T/C [31]: 112% | viability, T/C [32]: 107% | viability, T/C [33]: 114% | viability, T/C [34]: 114% | viability, T/C [35]: 98.7% | viability, T/C [36]: 106%

CC(C)n1c(=O)n(C)c2cnc3cc(F)c(-c4ccc(OCCCN5CCCCC5)nc4)cc3c21 + Nc1ccc(C#CCN(C(=O)Cc2ncc(C(F)(F)F)cc2C(F)(F)F)c2ccc(F)cc2)nn1
IC50 (second compound 0.0316 µM): > 10 µM | IC50 (second compound 0.1 µM): > 10 µM | IC50 (second compound 0.316 µM): > 10 µM | IC50 (second compound 1 µM): > 10 µM | IC50 (second compound 3.16 µM): > 10 µM | IC50 (second compound 10 µM): > 10 µM | viability, T/C [1]: 101% | viability, T/C [2]: 105% | viability, T/C [3]: 107% | viability, T/C [4]: 103% | viability, T/C [5]: 110% | viability, T/C [6]: 92.7% | viability, T/C [7]: 117% | viability, T/C [8]: 113% | viability, T/C [9]: 108% | viability, T/C [10]: 108% | viability, T/C [11]: 97.2% | viability, T/C [12]: 101% | viability, T/C [13]: 111% | viability, T/C [14]: 91.5% | viability, T/C [15]: 109% | viability, T/C [16]: 104% | viability, T/C [17]: 106% | viability, T/C [18]: 94.5% | viability, T/C [19]: 116% | viability, T/C [20]: 105% | viability, T/C [21]: 103% | viability, T/C [22]: 112% | viability, T/C [23]: 118% | viability, T/C [24]: 102% | viability, T/C [25]: 105% | viability, T/C [26]: 106% | viability, T/C [27]: 103% | viability, T/C [28]: 115% | viability, T/C [29]: 108% | viability, T/C [30]: 111% | viability, T/C [31]: 121% | viability, T/C [32]: 119% | viability, T/C [33]: 114% | viability, T/C [34]: 128% | viability, T/C [35]: 127% | viability, T/C [36]: 122%

CC1COCCN1c1cc(-c2ccnn2C)c2ccnc(-c3ccn[nH]3)c2n1 (stereo unspecified) + Nc1ccc(C#CCN(C(=O)Cc2ncc(C(F)(F)F)cc2C(F)(F)F)c2ccc(F)cc2)nn1
IC50 (second compound 0.0316 µM): 2.12 µM | IC50 (second compound 0.1 µM): 0.717 µM | IC50 (second compound 0.316 µM): 0.826 µM | IC50 (second compound 1 µM): 0.821 µM | IC50 (second compound 3.16 µM): 0.997 µM | IC50 (second compound 10 µM): 1.2 µM | viability, T/C [1]: 84.6% | viability, T/C [2]: 78.7% | viability, T/C [3]: 69.4% | viability, T/C [4]: 62.3% | viability, T/C [5]: 42.6% | viability, T/C [6]: 35.1% | viability, T/C [7]: 86.2% | viability, T/C [8]: 88% | viability, T/C [9]: 66.4% | viability, T/C [10]: 44.3% | viability, T/C [11]: 41.1% | viability, T/C [12]: 41.2% | viability, T/C [13]: 91% | viability, T/C [14]: 81% | viability, T/C [15]: 58.8% | viability, T/C [16]: 49.4% | viability, T/C [17]: 45.8% | viability, T/C [18]: 41.5% | viability, T/C [19]: 94.5% | viability, T/C [20]: 83.2% | viability, T/C [21]: 67.3% | viability, T/C [22]: 43.8% | viability, T/C [23]: 41.5% | viability, T/C [24]: 33% | viability, T/C [25]: 100% | viability, T/C [26]: 78.3% | viability, T/C [27]: 67.3% | viability, T/C [28]: 49.4% | viability, T/C [29]: 37.3% | viability, T/C [30]: 44.8% | viability, T/C [31]: 103% | viability, T/C [32]: 84.2% | viability, T/C [33]: 78.5% | viability, T/C [34]: 47.9% | viability, T/C [35]: 39.5% | viability, T/C [36]: 46.3%
